Experimental findings from ChEMBL document CHEMBL5055660, “In vitro activity of N-phenyl-1,10-phenanthroline-2-amines against tachyzoites and bradyzoites of Toxoplasma gondii” (Bioorg Med Chem, 2021) are described below.

Molecules are shown by their SMILES. Calls of active or inactive are those of the source. No cut-off for these calls is given here.

The subject of data set [1] is Toxoplasma gondii. In words: Anti-bradyzoite activity against Toxoplasma gondii ESG reporter stain infected in NHDF cells assessed as parasitic infection at 1.25 uM measured after 60 days by optical microscopic analysis. Format: functional, organism-based. As to conditions: time 60.0 day.
Data set [2] has as its system Toxoplasma gondii. Put plainly: Induction of vacuole formation in Toxoplasma gondii ESG reporter strain infected in NHDF cells assessed as increase in BAG positive vacuole number pretreated with PYR for 3 days followed by compound treatment and further incubated for 4 days. Conditions: time 4.0 day. Type of data set: functional, organism-based.
Data set [3] concerns Toxoplasma gondii. Put plainly: Anti-tachyzoite activity against RFP-expressing Toxoplasma gondii RH Type 1 infected in NHDF cells assessed as inhibition of parasite proliferation measured after 96 hrs by fluorescence plate reader. Type of data set: functional. Conditions: RH Type 1, NHDF, read-out: ED50 (the source's name).
Data set [4] in a line: Cytotoxicity against NHDF cells assessed as reduction in cell viability measured after 96 hrs by MTS assay. As to conditions: human. Type of data set: cell-based.
Data set [5] concerns Toxoplasma gondii. Put plainly: Anti-bradyzoite activity against Toxoplasma gondii ESG reporter strain infected in NHDF cells assessed as increase in BAG-positive vacuole number at 1.25 uM pretreated with PYR for 3 days followed by compound treatment and further incubated for 4 days. Format: functional, organism-based. Conditions: time 4.0 day.
For data set [6], the system named is Toxoplasma gondii. In words: Anti-bradyzoite activity against Toxoplasma gondii ESG reporter strain infected in NHDF cells assessed as induction of cyst formation measured after 5 days under alkaline condition by TEM analysis. Format: functional, organism-based. Conditions: time 5.0 day.
The subject of data set [7] is Toxoplasma gondii. Put plainly: Anti-tachyzoite activity against RFP-expressing Toxoplasma gondii RH Type 1 infected in NHDF cells assessed as inhibition of plaque formation at 1.25 uM when host cells pretreated for 3 days followed by infection and removal of medium containing compounds and subsequent addition of fresh medium without compounds and measured after 7 days by crystal violet staining based optical microscopic analysis. Conditions: time 3.0 day. Type of data set: functional, organism-based.

The subject of data set [8] is Toxoplasma gondii. Put plainly: Anti-tachyzoite activity against RFP-expressing Toxoplasma gondii RH Type 1 infected in NHDF cells assessed as inhibition of plaque formation at 0.625 uM incubated for 96 hrs followed by removal of medium containing compounds and subsequent addition of fresh medium without compounds and measured after 8 days by crystal violet staining based optical microscopic analysis. Type of data set: functional, organism-based.

For data set [9], the system named is Toxoplasma gondii. In words: Anti-tachyzoite activity against RFP-expressing Toxoplasma gondii RH Type 1 infected in NHDF cells assessed as inhibition of parasite proliferation measured after 72 hrs by fluorescence plate reader. Format: functional. As to conditions: RH Type 1, NHDF, read-out: ED50 (the source's name).
Data set [10] deals with Toxoplasma gondii. In words: Anti-bradyzoite activity against Toxoplasma gondii ESG reporter strain infected in NHDF cells assessed as morphological alteration at 1.25 uM measured after 5 days under alkaline condition by TEM analysis. Type of data set: functional, organism-based. As to conditions: time 5.0 day.
Data set [11] concerns Toxoplasma gondii. Put plainly: Anti-tachyzoite activity against RFP-expressing Toxoplasma gondii RH Type 1 infected in NHDF cells assessed as inhibition of plaque formation at 1.25 uM incubated for 96 hrs followed by removal of medium containing compounds and subsequent addition of fresh medium without compounds and measured after 8 days by crystal violet staining based optical microscopic analysis. Type of data set: functional, organism-based.

Data set [12] in a line: Selectivity index, ratio of CC50 for cytotoxicity against NHDF cells to ED50 for Anti-tachyzoite activity against RFP-expressing Toxoplasma gondii RH Type 1 infected in NHDF cells. Type of data set: toxicity, cell-based. Conditions: human; read-out: Selectivity Index.
Data set [13] has as its system Toxoplasma gondii. Put plainly: Anti-tachyzoite activity against RFP-expressing Toxoplasma gondii RH Type 1 infected in NHDF cells assessed as plaque formation at 0.625 uM incubated for 96 hrs followed by removal of medium containing compounds and subsequent addition of fresh medium without compounds and measured after 8 days by crystal violet staining based optical microscopic analysis. Type of data set: functional, organism-based.

Data set [14] concerns Toxoplasma gondii. Put plainly: Anti-tachyzoite activity against RFP-expressing Toxoplasma gondii RH Type 1 infected in NHDF cells assessed as destruction of host cells at 1.25 uM incubated for 96 hrs followed by removal of medium containing compounds and subsequent addition of fresh medium without compounds and measured after 8 days by crystal violet staining based optical microscopic analysis. Format: functional, organism-based.

The subject of data set [15] is Toxoplasma gondii. Put plainly: Anti-tachyzoite activity against RFP-expressing Toxoplasma gondii RH Type 1 infected in NHDF cells assessed as destruction of host cells at 2.5 uM incubated for 96 hrs followed by removal of medium containing compounds and subsequent addition of fresh medium without compounds and measured after 8 days by crystal violet staining based optical microscopic analysis. Type of data set: functional, organism-based.

Data set [16] deals with Toxoplasma gondii. In words: Anti-bradyzoite activity against Toxoplasma gondii ESG reporter strain infected in NHDF cells assessed as cell lysis measured after 21 days. Type of data set: functional, organism-based. Conditions: time 21.0 day.
The subject of data set [17] is Toxoplasma gondii. Put plainly: Anti-tachyzoite activity against RFP-expressing Toxoplasma gondii RH Type 1 infected in NHDF cells assessed as destruction of host cells at 5 uM incubated for 96 hrs followed by removal of medium containing compounds and subsequent addition of fresh medium without compounds and measured after 8 days by crystal violet staining based optical microscopic analysis. Type of data set: functional, organism-based.

Data set [18] deals with Toxoplasma gondii. Put plainly: Anti-bradyzoite activity against Toxoplasma gondii ESG reporter strain infected in NHDF cells assessed as cell lysis at 2 uM measured after 21 days. Format: functional, organism-based. As to conditions: time 21.0 day.
Data set [19] has as its system Toxoplasma gondii. In words: Anti-bradyzoite activity against Toxoplasma gondii ESG reporter stain infected in NHDF cells assessed as viable cells recovery causing host cell lysis at 0.625 uM measured after 15 days by optical microscopic analysis. As to conditions: time 15.0 day. Format: functional, organism-based.

In general, CC50 refers to the concentration giving 50% cytotoxicity. For `Fc1cccc(Nc2ccc3ccc4cccnc4c3n2)c1`, the outcome in the data set on Toxoplasma gondii [1] was inactive. Also, the outcome in the data set with Toxoplasma gondii [2], in the data set on Toxoplasma gondii [5], in the data set with Toxoplasma gondii [6], in the data set with Toxoplasma gondii [7], with Toxoplasma gondii [8] and in the data set on Toxoplasma gondii [10] was Active. The outcome in the data set on Toxoplasma gondii [11] was Active. The EC50 in the data set on Toxoplasma gondii [3] was 330 nM; with Toxoplasma gondii [9], 270 nM. In addition, in [4], the CC50 at 96 h worked out at 24900 nM. In addition, the selectivity ratio in data set [12] amounted to 75.

`Fc1ccc(Nc2ccc3ccc4cccnc4c3n2)cc1`: in the data set on Toxoplasma gondii [1], the outcome was inactive. Also, the results for the EC50 in the data set with Toxoplasma gondii [3] and in the data set with Toxoplasma gondii [9] were 310 nM and 250 nM, respectively. Further, the result with Toxoplasma gondii [13], with Toxoplasma gondii [5] and in the data set with Toxoplasma gondii [14] was Active. For the same molecule, the cytotoxic concentration (CC50) at 96 h in [4] stood at 26900 nM. Moreover, the selectivity ratio in [12] amounted to 96.

On to `N#Cc1cccc(Nc2ccc3ccc4cccnc4c3n2)c1`, for which the result in the data set on Toxoplasma gondii [2], with Toxoplasma gondii [15], in the data set on Toxoplasma gondii [16], in the data set with Toxoplasma gondii [14] and in the data set with Toxoplasma gondii [17] was Active. In addition, the EC50 in the data set on Toxoplasma gondii [3] was found to be 310 nM; in the data set on Toxoplasma gondii [9], 240 nM. Further, the CC50 at 96 h in data set [4] is 30500 nM. Further, in [12], the selectivity ratio stood at 98.

Turning to `c1cnc2c(c1)ccc1cccnc12` [PHENANTHROLINE], the values for the EC50 with Toxoplasma gondii [3] and with Toxoplasma gondii [9] were 2280 nM and 2010 nM, respectively. In addition, in the data set on Toxoplasma gondii [18], the outcome was Active. The CC50 at 96 h in data set [4] was determined as 70200 nM. Also, in [12], the selectivity ratio worked out at 31.

In the case of `c1ccc(Nc2ccc3ccc4cccnc4c3n2)cc1`, the EC50 in the data set with Toxoplasma gondii [3] amounted to 670 nM; in the data set with Toxoplasma gondii [9], 530 nM. The CC50 at 96 h in data set [4] came out at 34600 nM. The result with Toxoplasma gondii [11] was Active. In addition, the selectivity ratio in data set [12] amounted to 73.

In the case of `COc1ccc(Nc2ccc3ccc4cccnc4c3n2)cc1`, the outcome with Toxoplasma gondii [1] was inactive. The results for the EC50 with Toxoplasma gondii [3] and in the data set on Toxoplasma gondii [9] were 290 nM and 310 nM, respectively. Moreover, the outcome with Toxoplasma gondii [13], in the data set on Toxoplasma gondii [5], in the data set on Toxoplasma gondii [19] and in the data set with Toxoplasma gondii [11] was Active. Also, in data set [4], the CC50 at 96 h worked out at 18400 nM. Further, in data set [12], the selectivity ratio is 63.

On to `Clc1cccc(Nc2ccc3ccc4cccnc4c3n2)c1`, for which, in the data set on Toxoplasma gondii [1], the result was inactive. Moreover, the result with Toxoplasma gondii [2], in the data set with Toxoplasma gondii [5], in the data set on Toxoplasma gondii [6], in the data set on Toxoplasma gondii [7], with Toxoplasma gondii [8] and in the data set with Toxoplasma gondii [10] was Active. The outcome in the data set with Toxoplasma gondii [19] and with Toxoplasma gondii [11] was Active. For the same molecule, the values for the EC50 in the data set with Toxoplasma gondii [3] and in the data set with Toxoplasma gondii [9] were 580 nM and 360 nM, respectively. Further, the CC50 at 96 h in data set [4] is 24900 nM. Further, the selectivity ratio in data set [12] turned out to be 42.

Take `COc1cccc(Nc2ccc3ccc4cccnc4c3n2)c1`: in the data set with Toxoplasma gondii [1], the result was inactive. Also, the EC50 with Toxoplasma gondii [3] came out at 340 nM; in the data set with Toxoplasma gondii [9], 250 nM. For the same molecule, the result in the data set on Toxoplasma gondii [13], with Toxoplasma gondii [5], with Toxoplasma gondii [7] and in the data set on Toxoplasma gondii [11] was Active. In data set [4], the CC50 at 96 h is 37700 nM. Also, the selectivity ratio in data set [12] turned out to be 111.
